Our source for the IC50 and % nicked DNA values is ChEMBL document CHEMBL1944600, “Synthesis of chromeno[3,4-b]indoles as Lamellarin D analogues: a novel DYRK1A inhibitor class” (Eur J Med Chem, 2012).

Broadly, the IC50 is the concentration that inhibits the measured activity by half.

The target in experiment [1] is Glycogen synthase kinase-3 (Sus scrofa, UniProt B2LUN4+I6LNT8). Briefly: Inhibition of porcine brain GSK3alpha/beta using GS-1 as substrate.
Experiment [2] has as its target Cyclin-dependent kinase 5/CDK5 activator 1 (Homo sapiens, UniProt Q00535). Briefly: Inhibition of human recombinant CDK5/p25 using [gamma-33P]ATP after 30 mins by scintillation counting. The experiment is classed as protein-complex assay.
The target of experiment [3] is Dual specificity tyrosine-phosphorylation-regulated kinase 1A (Rattus norvegicus, UniProt Q63470). Briefly: Inhibition of GST-tagged rat recombinant DYRK1A expressed in Escherichia coli using myelin basic protein as substrate and [gamma-33P]ATP after 30 mins by scintillation counting.
Experiment [4] deals with T1, DNA topoisomerase 1 (Homo sapiens) (UniProt P11387).
T1 sequence (whole entry): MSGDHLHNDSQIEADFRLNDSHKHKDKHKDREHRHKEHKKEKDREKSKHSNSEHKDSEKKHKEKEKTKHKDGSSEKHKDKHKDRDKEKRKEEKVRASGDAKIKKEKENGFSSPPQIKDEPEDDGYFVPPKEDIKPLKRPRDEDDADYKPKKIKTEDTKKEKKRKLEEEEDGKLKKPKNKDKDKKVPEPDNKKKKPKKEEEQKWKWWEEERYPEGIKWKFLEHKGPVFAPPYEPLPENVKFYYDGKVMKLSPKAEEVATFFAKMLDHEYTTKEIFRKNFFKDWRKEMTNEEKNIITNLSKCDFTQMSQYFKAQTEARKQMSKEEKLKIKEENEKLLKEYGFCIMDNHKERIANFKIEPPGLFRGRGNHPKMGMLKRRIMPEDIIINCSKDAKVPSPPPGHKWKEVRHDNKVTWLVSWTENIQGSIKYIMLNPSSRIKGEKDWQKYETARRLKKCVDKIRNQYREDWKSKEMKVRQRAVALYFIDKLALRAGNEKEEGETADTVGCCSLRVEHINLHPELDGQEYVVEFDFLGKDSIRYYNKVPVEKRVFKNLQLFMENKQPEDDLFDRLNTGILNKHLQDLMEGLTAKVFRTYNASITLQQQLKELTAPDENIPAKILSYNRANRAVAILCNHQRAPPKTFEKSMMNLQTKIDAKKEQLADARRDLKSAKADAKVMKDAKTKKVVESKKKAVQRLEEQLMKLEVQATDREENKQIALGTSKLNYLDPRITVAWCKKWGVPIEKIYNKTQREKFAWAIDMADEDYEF
Briefly: Human topoisomerase 1-mediated nicking of supercoiled plasmid pUC19 DNA at 20 uM by agarose gel electrophoresis.

Experiment [5] addresses T1, DNA topoisomerase 1 (Homo sapiens). Briefly: Human topoisomerase 1-mediated nicking of supercoiled plasmid pUC19 DNA at 100 uM by agarose gel electrophoresis.
The subject of another experiment is CCRF-CEM. Briefly: Cytotoxicity against human CEM cells. The experiment is classed as functional, cell-based.

Cyclin-dependent kinase 5/CDK5 activator 1, sequence (Q00535 whole entry): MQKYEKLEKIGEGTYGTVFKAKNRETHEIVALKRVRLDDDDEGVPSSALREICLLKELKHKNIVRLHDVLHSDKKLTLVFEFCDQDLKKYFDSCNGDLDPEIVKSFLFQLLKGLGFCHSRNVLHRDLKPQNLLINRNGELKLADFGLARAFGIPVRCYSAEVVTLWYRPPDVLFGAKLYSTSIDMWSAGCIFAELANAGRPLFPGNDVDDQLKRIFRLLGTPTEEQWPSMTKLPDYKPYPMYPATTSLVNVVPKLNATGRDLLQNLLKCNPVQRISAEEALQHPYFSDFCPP
Cyclin-dependent kinase 5/CDK5 activator 1, sequence (Q15078 whole entry, further chain): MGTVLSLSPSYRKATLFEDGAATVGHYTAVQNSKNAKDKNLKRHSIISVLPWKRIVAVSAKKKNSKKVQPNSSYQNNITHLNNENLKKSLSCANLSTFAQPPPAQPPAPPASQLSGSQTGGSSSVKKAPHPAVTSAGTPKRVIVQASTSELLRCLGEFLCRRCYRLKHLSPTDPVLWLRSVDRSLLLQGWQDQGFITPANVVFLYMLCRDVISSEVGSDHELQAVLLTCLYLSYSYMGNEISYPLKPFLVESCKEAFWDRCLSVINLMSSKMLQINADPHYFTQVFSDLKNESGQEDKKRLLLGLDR

As for `O=c1oc2ccc(O)cc2c2c1[nH]c1cc3c(cc12)OCO3`, the half-maximal inhibitory concentration (IC50) in experiment [1] was > 10 µM; in experiment [2] it was 16 µM; in experiment [3], 1.8 µM.

Consider `Cc1cccc2[nH]c3c(=O)oc4ccc(O)cc4c3c12`, for which the IC50 in experiment [1] is 5.9 µM; in experiment [2], > 10 µM; in experiment [3] it was 0.66 µM.

For `O=c1oc2cc(O)ccc2c2c1[nH]c1ccc(O)cc12`, the IC50 was 0.42 µM in experiment [1], 4.2 µM in experiment [2], 0.3 µM in experiment [3] and 38.5 µM with CCRF-CEM. The results for the % nicked DNA in experiment [4] and in experiment [5] were 16% and 21%, respectively.

`O=c1oc2cc(O)ccc2c2c1[nH]c1cc(O)ccc12`: the 50% inhibitory concentration (IC50) came to 10 µM in experiment [1], 10 µM in experiment [2] and 3.2 µM in experiment [3].

Consider `O=c1oc2ccc(O)cc2c2c1[nH]c1cc(O)ccc12`, for which the half-inhibitory concentration (IC50) in experiment [1] is > 10 µM; in experiment [2] it was > 10 µM; in experiment [3], 4.3 µM.

Regarding `O=c1oc2ccc(O)cc2c2c1[nH]c1ccc(C(F)(F)F)cc12`, the IC50 result in experiment [1] is “>= 10 uM”; in experiment [2], ≥ 10 µM; in experiment [3] it was ≥ 10 µM.

With `O=c1oc2cc(O)ccc2c2c1[nH]c1ccccc12`, the IC50 amounted to 0.44 µM in experiment [1], 4.7 µM in experiment [2] and 0.5 µM in experiment [3].

With `Cc1ccc2c(c1)[nH]c1c(=O)oc3ccc(O)cc3c12`, the IC50 in experiment [1] was > 10 µM; in experiment [2], > 10 µM; in experiment [3], 3.3 µM.

Take `O=c1oc2ccc(O)cc2c2c1[nH]c1cccc(-c3ccc(O)cc3)c12`: the IC50 is > 10 µM in experiment [1], ≥ 10 µM in experiment [2] and ≥ 10 µM in experiment [3].

With `COc1cccc2[nH]c3c(=O)oc4ccc(O)cc4c3c12`, the IC50 in experiment [1] is 3.3 µM; in experiment [2], ≥ 10 µM; in experiment [3], 0.35 µM.

On to `O=c1oc2ccccc2c2c1[nH]c1ccccc12`, for which the IC50 in experiment [1], in experiment [2] and in experiment [3] was > 10 µM in each case.

For `O=c1oc2ccc(O)cc2c2c1[nH]c1ccc(O)cc12`, the IC50 in experiment [1] was 0.31 µM; in experiment [2], 0.72 µM; in experiment [3] it was 0.067 µM.

With `COc1ccc(-c2ccc3c(c2)[nH]c2c(=O)oc4ccc(O)cc4c23)cc1`, the IC50 in experiment [1], in experiment [2] and in experiment [3] was > 10 µM each time.

As for `O=c1oc2ccc(O)cc2c2c1[nH]c1ccccc12`, the results for the IC50 in experiment [1], in experiment [2] and in experiment [3] were 0.38 µM, 2.7 µM and 0.074 µM, respectively.

Consider `COc1cc(-c2c3c4cc(OC)c(O)cc4oc(=O)c3n3ccc4cc(O)c(OC)cc4c23)ccc1O` [LAMELLARIN D], for which the values for the % nicked DNA in experiment [4] and in experiment [5] were 22% and 21%, respectively. In the experiment with CCRF-CEM, this compound showed an IC50 of 15 µM.

Consider `O=c1oc2ccc(O)cc2c2c1[nH]c1ccc(F)cc12`, for which the values for the IC50 in experiment [1], in experiment [2] and in experiment [3] were 2.5 µM, 8.4 µM and 0.21 µM, respectively.

Consider `O=c1oc2ccc(O)cc2c2c1[nH]c1cccc(C(F)(F)F)c12`, for which the IC50 result in experiment [1] was “>= 10 uM”; in experiment [2], > 10 µM; in experiment [3], 2.1 µM.

For the compound `O=c1oc2ccccc2c2c1[nH]c1cccc(-c3ccc(O)cc3)c12`, the IC50 in experiment [1] is > 10 µM; in experiment [2], ≥ 10 µM; in experiment [3], ≥ 10 µM.

Turning to `COc1cccc2oc(=O)c3[nH]c4ccccc4c3c12`, the IC50 in experiment [1], in experiment [2] and in experiment [3] was > 10 µM each time.

On to `O=c1oc2cc(O)c(O)cc2c2c1[nH]c1ccc(O)cc12`, for which the values for the IC50 in experiment [1], in experiment [2] and in experiment [3] were 1.3 µM, > 10 µM and 1.5 µM, respectively.

As to `CCCOc1cccc2[nH]c3c(=O)oc4ccc(O)cc4c3c12`, the IC50 was 8.1 µM in experiment [1], > 10 µM in experiment [2] and 1.7 µM in experiment [3].

In the experiment on CCRF-CEM, `CC[C@@]1(O)C(=O)OCc2c1cc1n(c2=O)Cc2cc3ccccc3nc2-1` [CAMPTOTHECIN] yielded an IC50 of 0.005 µM.
